# Measurements from patent publication US8592458B2 (priority 2005, dated 2013).
# Like-named read-outs stand apart in the source and are kept apart here.
# Molecular target: α7 nAChR (Rattus norvegicus, UniProt Q05941)
# Assay type: binding
# Conditions: for RELATIVE A7/A4B2 SELECTIVITY: rat brain membranes, Ki alpha4beta2 / Ki alpha7, divided by the alpha7 selectivity of DMXBA (1.95), DMXBA set to 1.00
# α7 nAChR, sequence (Q05941 23-502): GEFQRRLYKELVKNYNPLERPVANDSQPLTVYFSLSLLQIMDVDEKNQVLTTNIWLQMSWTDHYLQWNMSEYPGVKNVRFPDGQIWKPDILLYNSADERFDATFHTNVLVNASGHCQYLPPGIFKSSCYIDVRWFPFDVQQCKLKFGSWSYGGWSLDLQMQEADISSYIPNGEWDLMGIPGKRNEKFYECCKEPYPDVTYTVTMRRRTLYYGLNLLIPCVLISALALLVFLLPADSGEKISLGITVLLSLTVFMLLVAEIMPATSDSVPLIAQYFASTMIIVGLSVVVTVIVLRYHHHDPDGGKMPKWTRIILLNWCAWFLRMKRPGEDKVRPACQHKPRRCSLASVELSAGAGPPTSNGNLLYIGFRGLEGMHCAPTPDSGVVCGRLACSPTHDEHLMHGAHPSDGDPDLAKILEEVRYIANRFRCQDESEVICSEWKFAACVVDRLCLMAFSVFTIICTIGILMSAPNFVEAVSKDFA
Molecule,RELATIVE A7/A4B2 SELECTIVITY,"relative alpha7 nAChR (versus alpha4beta2) receptor binding selectivity, higher than that of the other enantiomer (rat brain nAChR, compared with the other enantiomer)",RELATIVE A7/A4B2 SELECTIVITY (listed as 4-methyl-DMXBA enantiomer which had a longer retention time)
"COc1ccc(C=C2C(c3cccnc3)=NCCC2C)c(OC)c1 (stereo not drawn) [Most selective enantiomer of 4-Methyl-DMXBA, 3-(2,4-dimethoxybenzylidene)-(4-methyl)-3,4,5,6-tetrahydro-2,3′-bipyridine]",8.34,6.5 fold,
"CC1CCC(c2cccnc2)=NC1 (racemic) [(S,R)-5-Methyl-Anabaseine, 5-Methyl-Anabaseine]",0.38,,
"COc1ccc(C=C2C(c3cccnc3)=NCCC2C)c(OC)c1 (racemic) [(S,R)-4-Methyl-DMXBA, 3-(2,4-dimethoxybenzylidene)-(4-methyl)-3,4,5,6-tetrahydro-2,3′-bipyridine]",4.10,,
"COc1ccc(C=C2CCC(C)N=C2c2cccnc2)c(OC)c1 (stereo not drawn) [Least selective enantiomer of 6-Methyl-DMXBA, 3-(2,4-dimethoxybenzylidene)-(6-methyl)-3,4,5,6-tetrahydro-2,3′-bipyridine]",2.93,,
"COc1ccc(C=C2CCC(C)N=C2c2cccnc2)c(OC)c1 (racemic) [(S,R)-6-Methyl-DMXBA, 3-(2,4-dimethoxybenzylidene)-(6-methyl)-3,4,5,6-tetrahydro-2,3′-bipyridine]",3.67,,
"COc1ccc(C=C2C(c3cccnc3)=NCCC2C)c(OC)c1 (stereo not drawn) [Least selective enantiomer of 4-Methyl-DMXBA, 3-(2,4-dimethoxybenzylidene)-(4-methyl)-3,4,5,6-tetrahydro-2,3′-bipyridine]",,,1.28
"COc1ccc(/C=C2\CCCN=C2c2cccnc2)c(OC)c1 [DMXBA (GTS-21), (E)-3-(2,4-dimethoxybenzylidene)-3,4,5,6-tetrahydro-2,3′-bipyridine, reference compound]",1.00,,
"COc1cc(O[C@@H]2O[C@H](C(=O)O)[C@@H](O)[C@H](O)[C@H]2O)ccc1C=C1CCCN=C1c1cccnc1 [3-(4-Beta-Glucuronidyl-2-methoxyB)A, 3-(4-Glucuronido-2-methoxybenzylidene)-anabaseine]",9.40,,
"CC1CCCC(c2cccnc2)=N1 (racemic) [(S,R)-6-Methyl-Anabaseine, 6-methyl-anabaseine]",1.19,,
"COc1ccc(C=C2CCC(C)N=C2c2cccnc2)c(OC)c1 (stereo not drawn) [Most selective enantiomer of 6-Methyl-DMXBA, 3-(2,4-dimethoxybenzylidene)-(6-methyl)-3,4,5,6-tetrahydro-2,3′-bipyridine]",5.34,,
"CC1CCN=C(c2cccnc2)C1 (racemic) [(S,R)-4-Methyl-Anabaseine, 4-Methyl-anabaseine]",0.69,,
"COc1ccc(C=C2CC(C)CN=C2c2cccnc2)c(OC)c1 (stereo not drawn) [Most selective enantiomer of 5-Methyl-DMXBA, 3-(2,4-dimethoxybenzylidene)-(5-methyl)-3,4,5,6-tetrahydro-2,3′-bipyridine]",2.34,,
"COc1ccc(C=C2CC(C)CN=C2c2cccnc2)c(OC)c1 (racemic) [(S,R)-5-Methyl-DMXBA, 3-(2,4-dimethoxybenzylidene)-(5-methyl)-3,4,5,6-tetrahydro-2,3′-bipyridine]",1.31,,
"c1cncc(C2=NCCCC2)c1 [Anabaseine, reference compound]",0.69,,
"COc1ccc(C=C2CC(C)CN=C2c2cccnc2)c(OC)c1 (stereo not drawn) [Least selective enantiomer of 5-Methyl-DMXBA, 3-(2,4-dimethoxybenzylidene)-(5-methyl)-3,4,5,6-tetrahydro-2,3′-bipyridine]",1.03,,
4′-Methyl-DMXBA,14.8,,
